ChEMBL document CHEMBL1201862, “PubChem BioAssay data set” (2004)
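Dose response: 5 concentrations. Exposure: 48 h. Format: 96-well plates. Endpoint: linear interpolation; highest concentration if not reached. Here, GI50 denotes the concentration required for 50% inhibition of growth.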 The source made the active and inactive calls. Cut-off read from the data, not from the text of the source: active = GI50 up to about 1.1 µM and inactive = higher.

Assays:
Test in all cases: NCI tumour cell line growth inhibition, 48 h
OVCAR-8 = system: OVCAR-8
HCT-116 = system: HCT-116
TK-10 = system: TK-10
OVCAR-3 = system: OVCAR-3
U-251 = system: U-251
LOX IMVI = system: LOX IMVI
UACC-257 = system: UACC-257
EKVX = system: EKVX
CCRF-CEM = system: CCRF-CEM
SF-295 = system: SF-295
T47D = system: T47D
K562 = system: K562
SW-620 = system: SW-620
UACC-62 = system: UACC-62
HL-60 = system: HL-60
IGROV-1 = system: IGROV-1
NCI/ADR-RES = system: NCI/ADR-RES
OVCAR-4 = system: OVCAR-4
SN12C = system: SN12C
OVCAR-5 = system: OVCAR-5

Row | Structure (SMILES) | GI50 (OVCAR-8) | GI50 (HCT-116) | GI50 (TK-10) | GI50 (OVCAR-3) | GI50 (U-251) | GI50 (LOX IMVI) | GI50 (UACC-257) | GI50 (EKVX) | GI50 (CCRF-CEM) | GI50 (SF-295) | GI50 (T47D) | GI50 (K562) | GI50 (SW-620) | GI50 (UACC-62) | GI50 (HL-60) | GI50 (IGROV-1) | GI50 (NCI/ADR-RES) | GI50 (OVCAR-4) | GI50 (SN12C) | GI50 (OVCAR-5)
1 | Nc1nc(-c2cccnc2)cc(-c2cc(-c3cccnc3)nc(N)n2)n1 | > 100 µM (inactive) | > 100 µM (inactive) | > 100 µM (inactive) | > 100 µM (inactive) | > 100 µM (inactive) | > 100 µM (inactive) | > 100 µM (inactive) | > 100 µM (inactive) | 75.2 µM (inactive) | > 100 µM (inactive) | > 100 µM (inactive) | > 100 µM (inactive) | > 100 µM (inactive) | > 100 µM (inactive) | > 100 µM (inactive) | > 100 µM (inactive) | > 100 µM (inactive) | > 100 µM (inactive) | > 100 µM (inactive) | > 100 µM (inactive)
2 | CCOC(=O)NC(=O)c1cn(CCCOC(=O)CCCCCCCCC(=O)OCCCn2cc(C(=O)NC(=O)OCC)c(=O)n(C)c2=O)c(=O)n(C)c1=O | > 79.4 µM (inactive) | > 100 µM (inactive) | > 86.5 µM (inactive) | > 100 µM (inactive) | > 100 µM (inactive) | > 100 µM (inactive) | > 100 µM (inactive) | > 100 µM (inactive) | > 46.5 µM (inactive) | > 100 µM (inactive) | > 100 µM (inactive) | > 100 µM (inactive) | > 92 µM (inactive) | > 100 µM (inactive) | > 77.8 µM (inactive) | > 100 µM (inactive) | > 100 µM (inactive) | > 100 µM (inactive) | > 100 µM (inactive) | > 100 µM (inactive)
3 | COc1ccc(OC)c2sc(N3C(=O)/C(=C/c4cccc(Oc5ccccc5)c4)N=C3c3ccccc3)nc12 | 76 µM (inactive) | 85.1 µM (inactive) | > 100 µM (inactive) | > 100 µM (inactive) | 92 µM (inactive) | 65.3 µM (inactive) | 71.3 µM (inactive) | > 100 µM (inactive) | 29.9 µM (inactive) | > 100 µM (inactive) | 47 µM (inactive) | 32.1 µM (inactive) | 51.1 µM (inactive) | > 100 µM (inactive) | 38 µM (inactive) | > 100 µM (inactive) | > 100 µM (inactive) | > 100 µM (inactive) | > 100 µM (inactive) | > 100 µM (inactive)
4 | O=c1ccs[nH]1 | 12.7 µM (inactive) | 8.79 µM (inactive) | 13.8 µM (inactive) | 8.17 µM (inactive) | 7.21 µM (inactive) | 7.26 µM (inactive) | 8.91 µM (inactive) | 3.37 µM (inactive) | 1.56 µM (inactive) | 6.17 µM (inactive) | 3.81 µM (inactive) | 7.82 µM (inactive) | 4.06 µM (inactive) | 16.4 µM (inactive) | 3.13 µM (inactive) | 24.2 µM (inactive) | 17.7 µM (inactive) | 16 µM (inactive) | 11.1 µM (inactive) | 16.3 µM (inactive)
5 | O=C1N/C(=N/N=C/C(O)C(O)C(O)C(O)CO)N/C1=C\c1c[nH]c2ccccc12 (stereo not given) | > 100 µM (inactive) | > 100 µM (inactive) | > 100 µM (inactive) | 62.8 µM (inactive) | 69.3 µM (inactive) | > 100 µM (inactive) | > 100 µM (inactive) | 34.6 µM (inactive) | 39.1 µM (inactive) | > 100 µM (inactive) | 97.7 µM (inactive) | 83.9 µM (inactive) | > 100 µM (inactive) | > 100 µM (inactive) | 48.4 µM (inactive) | > 100 µM (inactive) | > 100 µM (inactive) | > 100 µM (inactive) | > 100 µM (inactive) | > 100 µM (inactive)
6 | N#Cc1[nH]c(=O)n(-c2ccccc2)c1N | > 10 µM (inactive) | > 10 µM (inactive) | > 10 µM (inactive) | > 10 µM (inactive) | > 10 µM (inactive) | 0.0995 µM (active) | > 10 µM (inactive) | > 10 µM (inactive) | > 10 µM (inactive) | 0.279 µM (active) | > 10 µM (inactive) | > 10 µM (inactive) | > 10 µM (inactive) | > 10 µM (inactive) | > 10 µM (inactive) | > 10 µM (inactive) | > 10 µM (inactive) | > 10 µM (inactive) | > 10 µM (inactive) | 0.141 µM (active)
7 | CCOC(OCC)C(CCc1ccccc1)c1c(N)nc(N)[nH]c1=O (stereo not given) | > 100 µM (inactive) | 65.3 µM (inactive) | 66.2 µM (inactive) | 62.4 µM (inactive) | 81.1 µM (inactive) | 64.3 µM (inactive) | > 100 µM (inactive) | 3.76 µM (inactive) | 53.6 µM (inactive) | 53.1 µM (inactive) | 68.7 µM (inactive) | 24.7 µM (inactive) | 78.7 µM (inactive) | 46.1 µM (inactive) | 25.2 µM (inactive) | 37.1 µM (inactive) | > 100 µM (inactive) | 46.1 µM (inactive) | 56.8 µM (inactive) | 13.5 µM (inactive)
8 | CC(C)=CCCC(C)CCOS(=O)C(F)(F)F (stereo not given) | 6.78 µM (inactive) | 12.6 µM (inactive) | > 100 µM (inactive) | 11.2 µM (inactive) | 9.66 µM (inactive) | 16.3 µM (inactive) | 19.5 µM (inactive) | 10.4 µM (inactive) | 4.29 µM (inactive) | 25.1 µM (inactive) | 43.7 µM (inactive) | 3.78 µM (inactive) | 3.29 µM (inactive) | 8.81 µM (inactive) | 2.88 µM (inactive) | 12.8 µM (inactive) | 4.16 µM (inactive) | 6.59 µM (inactive) | 7.93 µM (inactive) | 11 µM (inactive)
9 | CCS(=O)(=O)CCn1c(=O)c2c(ncn2C)n(C)c1=O | > 100 µM (inactive) | > 100 µM (inactive) | > 100 µM (inactive) | > 100 µM (inactive) | > 100 µM (inactive) | > 100 µM (inactive) | 45.4 µM (inactive) | > 100 µM (inactive) | > 100 µM (inactive) | > 100 µM (inactive) | > 100 µM (inactive) | > 100 µM (inactive) | > 100 µM (inactive) | > 100 µM (inactive) | > 100 µM (inactive) | > 100 µM (inactive) | > 100 µM (inactive) | > 100 µM (inactive) | > 100 µM (inactive) | > 100 µM (inactive)
10 | COc1cc(C2C(Cl)C(=O)N2c2c(C)n(C)n(-c3ccccc3)c2=O)ccc1O (stereo not given) | 19.4 µM (inactive) | 6.37 µM (inactive) | 24.7 µM (inactive) | 28.2 µM (inactive) | 18 µM (inactive) | 16.5 µM (inactive) | 16.4 µM (inactive) | 35 µM (inactive) | 22.7 µM (inactive) | 22.2 µM (inactive) | 44.3 µM (inactive) | 26.6 µM (inactive) | 15 µM (inactive) | 16 µM (inactive) | 23.3 µM (inactive) | 14.1 µM (inactive) | 30.3 µM (inactive) | 16.5 µM (inactive) | 19.1 µM (inactive) | 21.5 µM (inactive)
11 | Nc1cc(C2CCCc3c2[nH]c2ccccc32)ccc1O (stereo not given) | 24.3 µM (inactive) | 20.3 µM (inactive) | > 100 µM (inactive) | 22.3 µM (inactive) | 48.2 µM (inactive) | 16.4 µM (inactive) | 42.4 µM (inactive) | 44 µM (inactive) | 0.76 µM (active) | 14.4 µM (inactive) | 14.3 µM (inactive) | 6.56 µM (inactive) | 23.6 µM (inactive) | 10.8 µM (inactive) | 14.2 µM (inactive) | 38.2 µM (inactive) | 22 µM (inactive) | 16.9 µM (inactive) | 65.2 µM (inactive) | 24.1 µM (inactive)
12 | CC[C@@]1(OC(=O)CCC(=O)O)C(=O)OCc2c1cc1n(c2=O)Cc2cc3ccccc3nc2-1 | 0.137 µM (active) | 0.104 µM (active) | 3.65 µM (inactive) | 0.91 µM (active) | 0.0303 µM (active) | 0.0375 µM (active) | 0.254 µM (active) | 1.36 µM (inactive) | < 0.01 µM (active) | 0.0251 µM (active) | 0.065 µM (active) | 0.36 µM (active) | 0.15 µM (active) | 0.0187 µM (active) | 0.0313 µM (active) | 0.541 µM (active) | 0.0383 µM (active) | 1.46 µM (inactive) | 0.0333 µM (active) | 0.363 µM (active)
13 | O=[N+]([O-])c1oc2ccc3ccccc3c2c1CCO | 3.44 µM (inactive) | 2.29 µM (inactive) | 4.97 µM (inactive) | 12.6 µM (inactive) | 9.44 µM (inactive) | 2.14 µM (inactive) | 1.94 µM (inactive) | 0.447 µM (active) | 3.86 µM (inactive) | 1.57 µM (inactive) | 13.2 µM (inactive) | 1.96 µM (inactive) | 4.08 µM (inactive) | 2.87 µM (inactive) | 1.74 µM (inactive) | 1.32 µM (inactive) | 4.79 µM (inactive) | 3.18 µM (inactive) | 6.21 µM (inactive) | 7.23 µM (inactive)
14 | C=C1[C@H](OCC(C)C)[C@@H](O)[C@@H](OC(=O)c2cccnc2)C(C)(C)/C=C/[C@H](C)[C@H](OC(C)=O)[C@@]2(O)C[C@@](C)(OC(C)=O)[C@H](OC(=O)c3ccccc3)[C@@H]2[C@H]1OC(C)=O | 1.22 µM (inactive) | 1.59 µM (inactive) | 1.07 µM (active) | 1.12 µM (active) | 1.34 µM (inactive) | 1.17 µM (inactive) | 2.9 µM (inactive) | 1.04 µM (active) | 0.133 µM (active) | 0.371 µM (active) | > 2.96 µM (inactive) | 0.0585 µM (active) | 0.502 µM (active) | 2.07 µM (inactive) | 0.0695 µM (active) | 1.36 µM (inactive) | 1.29 µM (inactive) | 1.9 µM (inactive) | > 3.1 µM (inactive) | > 2.43 µM (inactive)
